# According to the supplement of paper PMC10307832:
# Compound: O=C(/C=C/c1ccccc1)NC(NC(=S)Nc1cccc2cccnc12)C(Cl)(Cl)Cl [Salubrinal] + CC(=O)c1c(C)c2cnc(Nc3ccc(N4CCNCC4)cn3)nc2n(C2CCCC2)c1=O [Palbociclib] (partner 0.5 µM)
# Assay: relative viability (nuclei count vs DMSO), 5 days (fraction); higher = more cells survive
# Settings: first compound 0.08 µM
# In short: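 One day after seeding in 1536-well plates, lung cancer cell lines were dosed by pin tool. Dosing was either single-drug or a fixed anchor-drug dose plus five library-drug doses (not always all listed) in √10 steps. After 5 days, nuclei were stained in one fix-and-stain step and counted on 4× images, and relative viability is the nuclei count of treated wells over that of vehicle wells, given as the median of duplicate plates.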
row,Cell Line,relative viability
1,NCI-H522,1.1
2,NCI-H2342,0.465
3,NCI-H727,0.672
4,NCI-H1650,0.314
5,NCI-H1993,0.718
6,SW 1573,0.445
7,NCI-H838,0.225
8,LCLC-103H,0.469
9,NCI-H520,0.25
10,NCI-H2126,0.382
11,EMC-BAC-2,0.493
12,NCI-H2085,0.457
13,HCC-366,0.464
14,NCI-H1666,0.687
15,LK-2,0.708
16,NCI-H2087,0.214
17,NCI-H358,0.154
18,NCI-H2170,0.436
19,H3255,0.315
20,COR-L23,0.356
21,COR-L 105,0.311

row,Cell Line,relative viability
1,LOU-NH91,0.6
2,ChaGo-K-1,1.02
3,NCI-H1793,0.366
4,NCI-H2405,0.536
5,HOP-62,0.359
6,HCC-44,1.03
7,SK-MES-1,0.33
8,LU99A,0.419
9,BEN,0.453
10,HARA,0.294
11,SW 900,0.692
12,HCC-78,0.462
13,NCI-H322M,0.528
14,LCLC-97TM1,0.236
15,NCI-H2009,0.224
16,A-427,0.57
17,NCI-H441,0.222
18,NCI-H661,0.424
19,NCI-H1734,0.393
20,NCI-H460,0.202
21,NCI-H2347,0.452

row,Cell Line,relative viability
1,SK-LU-1,0.368
2,NCI-H1395,0.638
3,201T,0.355
4,NCI-H1915,0.506
5,HCC-827,0.49
6,LXF-289,0.678
7,NCI-H23,0.635
8,NCI-H647,0.56
9,CAL-12T,0.459
10,NCI-H1651,0.561
11,EPLC-272H,0.314
12,NCI-H2228,0.613
13,NCI-H1792,0.789
14,NCI-H1355,0.423
15,NCI-H3122,0.195
16,NCI-H1437,0.321
17,NCI-H1755,0.486
18,NCI-H2023,0.346
19,HCC-15,0.832
20,PC-14,0.708
21,EKVX,0.408

# Same assay, conditions: first compound 0.253 µM
row,Cell Line,relative viability
1,NCI-H522,1.21
2,NCI-H2342,0.516
3,NCI-H727,0.585
4,NCI-H1650,0.297
5,NCI-H1993,0.596
6,SW 1573,0.355
7,NCI-H838,0.244
8,LCLC-103H,0.491
9,NCI-H520,0.225
10,NCI-H2126,0.383
11,EMC-BAC-2,0.493
12,NCI-H2085,0.471
13,NCI-H1666,0.593
14,LK-2,0.781
15,NCI-H2087,0.235
16,NCI-H358,0.137
17,NCI-H2170,0.326
18,H3255,0.344
19,COR-L23,0.31
20,COR-L 105,0.405

row,Cell Line,relative viability
1,LOU-NH91,0.565
2,ChaGo-K-1,0.756
3,NCI-H1793,0.37
4,NCI-H2405,0.484
5,HOP-62,0.399
6,HCC-44,0.941
7,SK-MES-1,0.356
8,LU99A,0.425
9,BEN,0.444
10,HARA,0.281
11,SW 900,0.531
12,HCC-78,0.403
13,NCI-H322M,0.445
14,LCLC-97TM1,0.224
15,NCI-H2009,0.171
16,A-427,0.527
17,NCI-H441,0.189
18,NCI-H661,0.436
19,NCI-H1734,0.334
20,NCI-H460,0.158

row,Cell Line,relative viability
1,NCI-H2347,0.462
2,SK-LU-1,0.377
3,NCI-H1395,0.648
4,201T,0.332
5,HCC-827,0.441
6,LXF-289,0.478
7,NCI-H23,0.387
8,NCI-H647,0.37
9,CAL-12T,0.42
10,NCI-H1651,0.479
11,EPLC-272H,0.295
12,NCI-H1355,0.472
13,NCI-H3122,0.238
14,NCI-H1437,0.334
15,NCI-H1755,0.415
16,NCI-H2023,0.32
17,HCC-15,0.589
18,PC-14,0.434
19,EKVX,0.457

# Same assay, conditions: first compound 0.8 µM
row,Cell Line,relative viability
1,NCI-H522,0.956
2,NCI-H2342,0.552
3,NCI-H727,0.656
4,NCI-H1650,0.334
5,NCI-H1993,0.737
6,SW 1573,0.378
7,NCI-H838,0.218
8,LCLC-103H,0.469
9,NCI-H520,0.23
10,NCI-H2126,0.363
11,EMC-BAC-2,0.541
12,NCI-H2085,0.484
13,HCC-366,0.44
14,NCI-H1666,0.632
15,LK-2,0.683
16,NCI-H2087,0.17
17,NCI-H358,0.123
18,NCI-H2170,0.447
19,H3255,0.319
20,COR-L23,0.312
21,COR-L 105,0.364

row,Cell Line,relative viability
1,LOU-NH91,0.521
2,ChaGo-K-1,0.954
3,NCI-H1793,0.323
4,NCI-H2405,0.55
5,HOP-62,0.53
6,HCC-44,0.971
7,SK-MES-1,0.33
8,LU99A,0.458
9,BEN,0.484
10,HARA,0.252
11,SW 900,0.493
12,HCC-78,0.488
13,NCI-H322M,0.547
14,LCLC-97TM1,0.221
15,NCI-H2009,0.197
16,A-427,0.562
17,NCI-H441,0.313
18,NCI-H661,0.412
19,NCI-H1734,0.392
20,NCI-H460,0.184
